How the values were obtained:
animal or person = type: in vivo; conditions: Rattus norvegicus, po, read-out: ED50, anti-apomorphine effect
in vivo = conditions: mouse, po

| Structure (SMILES) | ED50 (animal or person) [mg/kg] | LD50 (in vivo) [mg/kg] |
| --- | --- | --- |
| O=C(CCCN1CCC(O)(c2ccc(Cl)cc2)CC1)c1ccc(F)cc1 [Haloperidol, 1-[3-(p-fluorobenzoyl)propyl]-4-(p-chlorophenyl)-4-piperidinol, reference compound] | 0.5 | > 100 |
| O=c1[nH]c2ccccc2n1C1CCN(CCCC(c2ccc(F)cc2)c2ccc(F)cc2)CC1 [Pimozide, 1-[1-(4,4-bis(p-fluorophenyl)butyl)-4-piperidyl]-2-benzimidazolinone, reference compound] | 0.25 | > 1000 |
| Cl.OC1(c2ccc(Cl)c(C(F)(F)F)c2)CCN(C2CCC(c3ccc(F)cc3)(c3ccc(F)cc3)CC2)CC1 [Test Compound A, 1-[4,4-bis(p-fluorophenyl)cyclohexyl]-4-(4-chloro-3-trifluoromethylphenyl)-4-piperidinol hydrochloride] | 2.46 | ≥ 464 |
| O=C1NCN(c2ccc(F)cc2)C12CCN(C1CCC(c3ccc(F)cc3)(c3ccc(F)cc3)CC1)CC2 [Test Compound B, 8-[4,4-bis(p-fluorophenyl)cyclohexyl]-1-(p-fluorophenyl)-1,3,8-triazaspiro[4.5]decan-4-one] | 0.1 |  |
| O=C1NCN(c2ccc(Cl)cc2)C12CCN(C1CCC(c3ccc(F)cc3)(c3ccc(F)cc3)CC1)CC2 [Test Compound E, 8-[4,4-bis(p-fluorophenyl)cyclohexyl]-1-(p-chlorophenyl)-1,3,8-triazaspiro[4.5]decan-4-one] | 0.28 | ≥ 464 |
